Source: PubChem BioAssay AID192 (DTP/NCI, 2004)
Where “and” joins values, the source holds several entries; their conditions need not be identical. Identical values can stand only once. Toxic doses and inconclusive results are not listed.

Tested on: BDF1 mice, B16 melanoma ip, median survival T/C
Assay: NCI In Vivo Anticancer Drug Screen. Data for tumor model B16 Melanoma (intraperitoneal) in B6D2F1 (BDF1) mice
Conditions: endpoint: median survival time, higher = longer survival
In short: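 Each result divides a survival or tumor-size measurement in the compound-treated group by the same measurement in the vehicle group.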

[1] = dose: 100.0 mg/kg/injection, schedule: Q01DX009 (ip), vehicle: Klucel (hydroxypropylcellulose) (HPC)
[2] = dose: 200.0 mg/kg/injection, schedule: Q01DX009 (ip), vehicle: Klucel (hydroxypropylcellulose) (HPC)
[3] = dose: 400.0 mg/kg/injection, schedule: Q01DX009 (ip), vehicle: Klucel (hydroxypropylcellulose) (HPC)
[4] = dose: 12.5 mg/kg/injection, schedule: Q01DX009 (ip), vehicle: saline
[5] = dose: 25.0 mg/kg/injection, schedule: Q01DX009 (ip), vehicle: saline
[6] = dose: 50.0 mg/kg/injection, schedule: Q01DX009 (ip), vehicle: saline
[7] = dose: 6.25 mg/kg/injection, schedule: Q01DX009 (ip), vehicle: saline
[8] = dose: 12.5 mg/kg/injection, schedule: Q01DX009 (ip), vehicle: saline with Tween-80
[9] = dose: 25.0 mg/kg/injection, schedule: Q01DX009 (ip), vehicle: saline with Tween-80
[10] = dose: 50.0 mg/kg/injection, schedule: Q01DX009 (ip), vehicle: saline with Tween-80

For `O=C(O)C(O)C(=O)O.[NH2-].[NH2-].[Pt+2]`, the T/C (dose: 1.0 mg/kg/injection, schedule: Q01DX009 (ip), vehicle: other) was 104 % of control, the T/C (dose: 8.0 mg/kg/injection, schedule: Q01DX009 (ip), vehicle: other) was 156 % of control and 175 % of control and 192 % of control and the T/C (dose: 16.0 mg/kg/injection, schedule: Q01DX009 (ip), vehicle: other) was 197 % of control and 288 % of control and 300 % of control. The T/C (dose: 32.0 mg/kg/injection, schedule: Q01DX009 (ip), vehicle: other) was 281 % of control.
`CCOC(=O)NNC(=O)c1ccccc1N(C)C` was tested, and the T/C [1] was 116 % of control, the T/C [2] was 104 % of control and the T/C [3] was 92 % of control.
In the case of `O=c1[nH]cnc2c1cnn2-c1ccccc1`, the T/C [1] is reported as 90 % of control, the T/C [2] is reported as 90 % of control and the T/C [3] is reported as 103 % of control.
With `COc1c2c(cc3c1C(Cl)N(C)CC3)OCO2` (centres undefined) the T/C [4] was 96 % of control, the T/C [5] was 110 % of control and the T/C [6] was 106 % of control.
`COC1C=CC23c4cc5c(cc4C(O)OC2CN(C)C3C1)OCO5` (centres undefined) was tested, and the T/C [7] was 101 % of control and 109 % of control, the T/C [4] was 98 % of control and 108 % of control and the T/C [5] was 112 % of control and 116 % of control. The T/C [6] was 112 % of control.
With `O=[N+]([O-])c1ccc2c(N=Nc3c(O)ccc4ccccc34)c(O)cc(S(=O)(=O)O)c2c1` the T/C (dose: 100.0 mg/kg/injection, schedule: Q01DX009 (ip), vehicle: saline with Tween-80) was 106 % of control and the T/C (dose: 200.0 mg/kg/injection, schedule: Q01DX009 (ip), vehicle: saline with Tween-80) was 102 % of control.
With `Nc1ccc(C(=O)O)c(O)c1` the T/C (dose: 9.3 mg/kg/injection, schedule: Q01DX009 (ip), vehicle: saline with Tween-80) was 98 % of control, the T/C (dose: 18.7 mg/kg/injection, schedule: Q01DX009 (ip), vehicle: saline with Tween-80) was 99 % of control and the T/C (dose: 37.5 mg/kg/injection, schedule: Q01DX009 (ip), vehicle: saline with Tween-80) was 98 % of control. The T/C (dose: 75.0 mg/kg/injection, schedule: Q01DX009 (ip), vehicle: saline with Tween-80) was 89 % of control.
With `CN=C1N[N+]2=CCCCC2S1` (centres undefined) the T/C (dose: 40.0 mg/kg/injection, schedule: Q01DX011 (ip), vehicle: saline) was 104 % of control, the T/C (dose: 60.0 mg/kg/injection, schedule: Q01DX011 (ip), vehicle: saline) was 112 % of control and the T/C (dose: 80.0 mg/kg/injection, schedule: Q01DX011 (ip), vehicle: saline) was 111 % of control.
In the case of `CC1=[N+](C)C(C)(C)CC(C)O1` (centres undefined), the T/C (dose: 3.12 mg/kg/injection, schedule: Q01DX009 (ip), vehicle: saline) is reported as 91 % of control, the T/C [7] is reported as 104 % of control and the T/C [4] is reported as 104 % of control. The T/C [5] was 91 % of control.
With `CCOCCCN` the T/C [6] was 122 % of control and the T/C (dose: 100.0 mg/kg/injection, schedule: Q01DX009 (ip), vehicle: saline) was 122 % of control.
For `CC1CCCC(C)N1NC1=NCCO1` (centres undefined), the T/C [8] was 97 % of control, the T/C [9] was 102 % of control and the T/C [10] was 97 % of control.
In the case of `CC(=Nc1ccccc1)C1=C(O)C(Cc2ccc(O)cc2)NC1=O` (centres undefined), the T/C [8] is reported as 111 % of control.
For `CN(C)CC(C(=O)c1ccc(Br)cc1)C(Br)c1ccccc1` (centres undefined), the T/C (dose: 5.0 mg/kg/injection, schedule: Q01DX009 (ip), vehicle: saline with Tween-80) was 101 % of control, the T/C (dose: 10.0 mg/kg/injection, schedule: Q01DX009 (ip), vehicle: saline with Tween-80) was 108 % of control and the T/C (dose: 20.0 mg/kg/injection, schedule: Q01DX009 (ip), vehicle: saline with Tween-80) was 101 % of control. For the same molecule, the T/C (dose: 40.0 mg/kg/injection, schedule: Q01DX009 (ip), vehicle: saline with Tween-80) was 111 % of control.
With `CSc1nc(Cl)c(Br)c(Cl)n1` the T/C (dose: 1.56 mg/kg/injection, schedule: Q01DX009 (ip), vehicle: saline with Tween-80) was 110 % of control, the T/C (dose: 3.13 mg/kg/injection, schedule: Q01DX009 (ip), vehicle: saline with Tween-80) was 112 % of control and the T/C (dose: 6.25 mg/kg/injection, schedule: Q01DX009 (ip), vehicle: saline with Tween-80) was 102 % of control. For the same molecule, the T/C [8] was 108 % of control.
In the case of `CC(C)C1=CC2=CCC3C(C)(C(N)=O)CCCC3(C)C2CC1CC#N` (centres undefined), the T/C (dose: 100.0 mg/kg/injection, schedule: Q04DX003 (ip), vehicle: saline with Tween-80) is reported as 102 % of control and the T/C (dose: 400.0 mg/kg/injection, schedule: Q04DX003 (ip), vehicle: saline with Tween-80) is reported as 88 % of control.
For `CSc1ccc(NC(=O)CCl)cc1`, the T/C [8] was 95 % of control, the T/C [9] was 105 % of control and the T/C [10] was 96 % of control.
